Holding throughout (assay type): functional
One experiment has as its system CHO-K1. Description: Counterscreen for antagonists of the orexin 1 receptor (OX1R; HCRTR1): Homogeneous time resolved fluorescence (HTRF)-based cell-based dose response assay to identify antagonists of the parental CHO-K1 cell line. [Related pubchem assays (depositor defined):AID434989, AID435008, AID463079, AID485270, AID492963, AID492964, AID492965, AID493232, AID504699, AID504701]. The note with it: Cricetulus griseus.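 Note: potency for inhibition of ATP-stimulated IP1 production as antagonists.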

Experiment [1] can be described thus: Counterscreen for antagonists of the orexin 1 receptor (OX1R; HCRTR1): Fluorescence-based cell-based high throughput dose response assay to identify antagonists of the parental CHO cell line. [Related pubchem assays (depositor defined):AID434989, AID435008, AID463079, AID485270, AID492963, AID492964, AID492965, AID493232, AID504699, AID504701]. On the technique in general: The purpose of a counterscreen is to sort out artefacts and off-target activity.

The target in experiment [2] is T1, Orexin/Hypocretin receptor type 1 (Homo sapiens, UniProt O43613).
T1 sequence (O43613 whole entry): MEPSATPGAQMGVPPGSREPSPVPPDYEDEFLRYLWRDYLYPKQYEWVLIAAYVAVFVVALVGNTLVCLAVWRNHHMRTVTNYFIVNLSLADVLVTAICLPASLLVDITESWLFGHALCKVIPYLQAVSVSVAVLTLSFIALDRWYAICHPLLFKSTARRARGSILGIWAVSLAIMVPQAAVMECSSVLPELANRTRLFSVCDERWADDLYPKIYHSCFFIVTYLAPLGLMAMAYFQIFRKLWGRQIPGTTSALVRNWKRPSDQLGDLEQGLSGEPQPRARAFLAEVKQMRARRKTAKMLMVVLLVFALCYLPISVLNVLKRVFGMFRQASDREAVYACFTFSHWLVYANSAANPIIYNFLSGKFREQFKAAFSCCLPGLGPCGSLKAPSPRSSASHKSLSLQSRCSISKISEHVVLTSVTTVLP
In words: Homogeneous Time Resolved Fluorescence (HTRF)-based cell-based high throughput dose response assay for antagonists of the orexin 1 receptor (OX1R; HCRTR1). [Related pubchem assays (depositor defined):AID434989, AID435008, AID463079, AID485270, AID492963, AID492964, AID492965, AID493232, AID504717, AID504718]. (Time-resolved FRET reads energy transfer from a long-lived donor to a nearby acceptor.)

The target of experiment [3] is T1, Orexin/Hypocretin receptor type 1. Description: Fluorescence-based cell-based high throughput dose response assay for antagonists of the orexin 1 receptor (OX1R; HCRTR1). [Related pubchem assays (depositor defined):AID434989, AID435008, AID463079, AID485270, AID492963, AID492964, AID492965, AID493232, AID504717, AID504718].
The target of experiment [4] is T2, Orexin receptor type 2 (Homo sapiens, UniProt O43614). In words: Counterscreen assay for antagonists of the orexin 1 receptor (OX1R; HCRTR1): Fluorescence-based cell-based dose response assay for antagonists of the orexin 2 receptor (OX2R; HCRTR2), run by assay provider.
Experiment [5] deals with T2, Orexin receptor type 2. In words: Counterscreen assay for antagonists of the orexin 1 receptor (OX1R; HCRTR1): Homogeneous Time Resolved Fluorescence (HTRF)-based cell-based dose response assay for antagonists of the orexin 2 receptor (OX2R; HCRTR2), run by assay provider.
Experiment [6] addresses Protein disulfide-isomerase (Homo sapiens, UniProt P07237). In words: inhibition of PDI-driven insulin aggregation – biochemical, turbidity, absorbance, cherry-picked samples, dose response (AID 602350).
Experiment [7] deals with Serine/threonine-protein kinase pim-1 (Homo sapiens, UniProt P11309).
In experiment [8] the target is Cell division cycle 7-related protein kinase (Homo sapiens, UniProt O00311).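 Note: value obtained from a kinome-wide kinase panel.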
The target in experiment [9] is Homeodomain-interacting protein kinase 2 (Homo sapiens, UniProt Q9H2X6).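 Note: measured within a kinome-wide kinase profiling panel, HIPK2 being one panel member.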
Experiment [10] deals with Interleukin-1 receptor-associated kinase 4 (Homo sapiens, UniProt Q9NWZ3).
Experiment [11] concerns the target cAMP-dependent protein kinase catalytic subunit alpha (Homo sapiens, UniProt P17612).
The target in experiment [12] is Mitogen-activated protein kinase kinase kinase kinase 4 (Homo sapiens, UniProt O95819).

The text below walks through data of ChEMBL document CHEMBL1201862, “PubChem BioAssay data set” (2004).

Active and inactive are the calls of the source.

One may read the IC50 as the concentration at which inhibition is half-maximal. Broadly, the AC50 is the concentration at which the activity in the assay is half-maximal. One may read the Ki as the dissociation constant of the complex between target and ligand, obtained from inhibition or displacement.

T2 sequence (O43614 whole entry): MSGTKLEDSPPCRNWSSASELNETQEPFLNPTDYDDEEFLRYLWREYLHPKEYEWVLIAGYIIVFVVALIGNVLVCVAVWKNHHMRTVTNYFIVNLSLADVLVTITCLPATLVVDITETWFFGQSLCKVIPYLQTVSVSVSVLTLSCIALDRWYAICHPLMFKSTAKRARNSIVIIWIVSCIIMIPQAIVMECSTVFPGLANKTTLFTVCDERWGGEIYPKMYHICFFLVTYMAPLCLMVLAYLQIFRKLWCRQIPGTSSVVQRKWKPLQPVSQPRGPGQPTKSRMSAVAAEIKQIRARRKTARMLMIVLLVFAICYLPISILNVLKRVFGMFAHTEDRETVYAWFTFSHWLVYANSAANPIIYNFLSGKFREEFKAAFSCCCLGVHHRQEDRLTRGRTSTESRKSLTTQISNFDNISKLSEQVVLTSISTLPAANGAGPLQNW
Sequence of Interleukin-1 receptor-associated kinase 4 (Q9NWZ3 whole entry): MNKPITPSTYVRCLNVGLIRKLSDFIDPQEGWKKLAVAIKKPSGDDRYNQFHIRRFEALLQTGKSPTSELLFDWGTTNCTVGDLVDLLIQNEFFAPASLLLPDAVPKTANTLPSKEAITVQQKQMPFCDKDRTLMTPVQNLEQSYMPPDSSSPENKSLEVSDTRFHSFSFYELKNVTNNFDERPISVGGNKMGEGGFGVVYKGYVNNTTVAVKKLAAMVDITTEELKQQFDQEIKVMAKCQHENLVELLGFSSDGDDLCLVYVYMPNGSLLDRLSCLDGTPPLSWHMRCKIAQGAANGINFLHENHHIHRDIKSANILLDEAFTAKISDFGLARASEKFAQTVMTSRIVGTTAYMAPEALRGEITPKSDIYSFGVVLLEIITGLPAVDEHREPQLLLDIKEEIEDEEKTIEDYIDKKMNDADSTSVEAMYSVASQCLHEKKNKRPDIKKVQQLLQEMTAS
Sequence of Cell division cycle 7-related protein kinase (O00311 whole entry): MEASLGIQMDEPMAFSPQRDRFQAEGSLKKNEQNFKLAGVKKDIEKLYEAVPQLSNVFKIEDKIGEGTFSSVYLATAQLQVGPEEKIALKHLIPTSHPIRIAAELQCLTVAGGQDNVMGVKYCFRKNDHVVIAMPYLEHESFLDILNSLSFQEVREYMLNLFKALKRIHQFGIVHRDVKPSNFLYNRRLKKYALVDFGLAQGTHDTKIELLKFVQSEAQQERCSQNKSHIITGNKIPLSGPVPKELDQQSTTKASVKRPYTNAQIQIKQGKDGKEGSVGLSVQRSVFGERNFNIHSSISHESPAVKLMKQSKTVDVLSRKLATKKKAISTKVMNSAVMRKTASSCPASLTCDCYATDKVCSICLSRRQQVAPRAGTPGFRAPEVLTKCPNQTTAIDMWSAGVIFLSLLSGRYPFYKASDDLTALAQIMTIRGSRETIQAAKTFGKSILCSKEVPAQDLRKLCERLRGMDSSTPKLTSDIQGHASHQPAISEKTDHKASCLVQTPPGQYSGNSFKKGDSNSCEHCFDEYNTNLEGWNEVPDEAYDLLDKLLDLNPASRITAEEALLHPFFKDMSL
Sequence of Serine/threonine-protein kinase pim-1 (P11309 whole entry): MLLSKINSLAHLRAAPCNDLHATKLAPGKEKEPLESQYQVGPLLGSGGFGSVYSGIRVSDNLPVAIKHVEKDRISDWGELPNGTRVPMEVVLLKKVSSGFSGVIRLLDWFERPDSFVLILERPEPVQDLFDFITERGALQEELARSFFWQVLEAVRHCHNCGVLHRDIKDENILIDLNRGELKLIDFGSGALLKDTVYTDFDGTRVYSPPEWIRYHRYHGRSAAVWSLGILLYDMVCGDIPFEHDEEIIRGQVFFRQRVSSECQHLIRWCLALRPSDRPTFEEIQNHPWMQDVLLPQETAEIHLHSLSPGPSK
Sequence of Protein disulfide-isomerase (P07237 whole entry): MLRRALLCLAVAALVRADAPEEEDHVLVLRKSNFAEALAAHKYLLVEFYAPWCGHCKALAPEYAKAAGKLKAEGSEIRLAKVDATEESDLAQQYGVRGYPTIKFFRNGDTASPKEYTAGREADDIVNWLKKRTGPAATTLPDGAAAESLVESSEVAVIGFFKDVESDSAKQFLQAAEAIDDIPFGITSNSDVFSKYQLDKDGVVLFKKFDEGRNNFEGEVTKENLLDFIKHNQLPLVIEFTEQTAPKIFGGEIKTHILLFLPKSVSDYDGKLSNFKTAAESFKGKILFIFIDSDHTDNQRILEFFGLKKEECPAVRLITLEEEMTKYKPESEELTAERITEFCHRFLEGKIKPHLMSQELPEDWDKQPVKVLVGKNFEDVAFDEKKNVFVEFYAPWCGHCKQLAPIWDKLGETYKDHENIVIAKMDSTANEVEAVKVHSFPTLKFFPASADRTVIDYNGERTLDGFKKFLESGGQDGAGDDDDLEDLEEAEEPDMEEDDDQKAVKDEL
Sequence of Homeodomain-interacting protein kinase 2 (Q9H2X6 whole entry): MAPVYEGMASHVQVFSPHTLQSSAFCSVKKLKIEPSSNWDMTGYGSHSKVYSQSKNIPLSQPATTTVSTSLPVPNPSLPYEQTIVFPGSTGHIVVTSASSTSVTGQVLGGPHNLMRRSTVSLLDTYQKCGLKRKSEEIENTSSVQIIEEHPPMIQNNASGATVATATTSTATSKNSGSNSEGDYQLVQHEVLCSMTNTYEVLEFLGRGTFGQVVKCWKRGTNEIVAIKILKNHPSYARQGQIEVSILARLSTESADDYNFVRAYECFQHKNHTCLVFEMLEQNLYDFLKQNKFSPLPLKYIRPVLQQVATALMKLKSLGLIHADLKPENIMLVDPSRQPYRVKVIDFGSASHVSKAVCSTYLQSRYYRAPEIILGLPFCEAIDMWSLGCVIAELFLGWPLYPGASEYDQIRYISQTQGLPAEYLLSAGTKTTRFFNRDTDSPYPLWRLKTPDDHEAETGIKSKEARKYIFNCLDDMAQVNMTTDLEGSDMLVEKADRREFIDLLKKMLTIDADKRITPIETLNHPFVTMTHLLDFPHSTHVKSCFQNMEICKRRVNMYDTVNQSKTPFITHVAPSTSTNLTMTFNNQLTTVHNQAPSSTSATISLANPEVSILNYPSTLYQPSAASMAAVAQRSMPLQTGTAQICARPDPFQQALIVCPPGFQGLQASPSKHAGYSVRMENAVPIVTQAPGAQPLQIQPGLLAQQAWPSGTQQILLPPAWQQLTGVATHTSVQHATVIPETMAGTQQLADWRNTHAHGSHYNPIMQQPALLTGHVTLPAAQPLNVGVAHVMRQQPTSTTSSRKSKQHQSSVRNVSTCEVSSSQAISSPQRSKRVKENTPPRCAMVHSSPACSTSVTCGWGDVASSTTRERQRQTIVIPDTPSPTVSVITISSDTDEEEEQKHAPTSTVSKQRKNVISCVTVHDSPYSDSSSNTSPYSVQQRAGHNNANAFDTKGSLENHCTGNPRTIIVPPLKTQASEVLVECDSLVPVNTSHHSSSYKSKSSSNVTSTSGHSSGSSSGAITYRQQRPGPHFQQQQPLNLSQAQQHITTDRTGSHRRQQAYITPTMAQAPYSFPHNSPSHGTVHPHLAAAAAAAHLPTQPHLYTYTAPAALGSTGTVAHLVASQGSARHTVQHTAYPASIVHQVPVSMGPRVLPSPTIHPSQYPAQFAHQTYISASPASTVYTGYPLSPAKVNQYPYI
Sequence of Mitogen-activated protein kinase kinase kinase kinase 4 (O95819 whole entry): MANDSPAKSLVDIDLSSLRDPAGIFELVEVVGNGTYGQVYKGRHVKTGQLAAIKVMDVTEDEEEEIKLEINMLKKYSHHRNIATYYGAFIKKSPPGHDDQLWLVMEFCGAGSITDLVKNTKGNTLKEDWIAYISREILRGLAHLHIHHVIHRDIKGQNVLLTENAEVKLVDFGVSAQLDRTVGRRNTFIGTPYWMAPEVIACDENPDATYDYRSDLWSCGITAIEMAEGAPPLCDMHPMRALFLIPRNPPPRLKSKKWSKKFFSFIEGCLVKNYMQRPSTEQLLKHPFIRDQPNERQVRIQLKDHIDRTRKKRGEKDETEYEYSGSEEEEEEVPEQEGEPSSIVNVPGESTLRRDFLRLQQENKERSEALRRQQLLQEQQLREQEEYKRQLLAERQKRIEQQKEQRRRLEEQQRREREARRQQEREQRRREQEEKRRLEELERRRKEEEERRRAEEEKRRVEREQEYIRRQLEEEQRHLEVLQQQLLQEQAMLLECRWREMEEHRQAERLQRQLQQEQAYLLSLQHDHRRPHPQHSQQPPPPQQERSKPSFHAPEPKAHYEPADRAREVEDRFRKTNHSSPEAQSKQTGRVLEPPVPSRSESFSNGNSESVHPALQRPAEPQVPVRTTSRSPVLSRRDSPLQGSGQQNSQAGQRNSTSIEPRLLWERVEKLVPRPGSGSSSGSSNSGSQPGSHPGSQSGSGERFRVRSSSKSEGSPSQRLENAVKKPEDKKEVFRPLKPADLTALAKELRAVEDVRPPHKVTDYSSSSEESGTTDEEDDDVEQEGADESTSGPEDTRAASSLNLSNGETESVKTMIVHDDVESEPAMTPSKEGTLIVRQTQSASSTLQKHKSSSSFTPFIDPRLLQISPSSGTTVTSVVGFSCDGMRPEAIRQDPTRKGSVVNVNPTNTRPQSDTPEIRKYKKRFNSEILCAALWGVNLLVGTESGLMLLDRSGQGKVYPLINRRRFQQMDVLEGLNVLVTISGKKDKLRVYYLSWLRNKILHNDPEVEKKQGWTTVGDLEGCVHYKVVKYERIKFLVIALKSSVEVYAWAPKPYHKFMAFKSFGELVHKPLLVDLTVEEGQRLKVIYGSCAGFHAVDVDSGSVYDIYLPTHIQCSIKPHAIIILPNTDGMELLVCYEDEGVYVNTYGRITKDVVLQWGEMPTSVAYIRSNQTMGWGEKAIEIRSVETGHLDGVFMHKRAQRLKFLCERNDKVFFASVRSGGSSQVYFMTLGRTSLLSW

As to `O=C(O)CCn1c(SCCOc2ccccc2)nc2ccccc21`, the IC50 in the experiment on CHO-K1 is > 66.2 µM (inactive); in experiment [1], > 49.7 µM (inactive); in experiment [2], 0.687 µM (active); in [3], 23 µM (inactive); at Orexin receptor type 2 [4], > 88.8 µM (inactive); at Orexin receptor type 2 [5], > 50 µM (inactive).
As to `O=C1NC[C@H](Cc2ccccc2)N(C[C@H]2CCCN2C[C@H](Cc2ccccc2)N2C[C@H](Cc3ccc(O)cc3)N(CCc3ccccc3)C(=O)C2=O)C1=O`, the half-maximal activity concentration (AC50) in experiment [6] is 6.5 µM (active).
Turning to `c1ccc(Cn2cc(-c3ccc4[nH]nc(-c5cn(Cc6ccccc6)nn5)c4c3)nn2)cc1`, the Ki in [7] was 0.398 µM (active); in experiment [8], 0.0501 µM (active); in experiment [9] it was 0.0158 µM (active); in experiment [10], 3.98 µM (active); in experiment [11], > 7.94 µM (inactive); in [12], 0.1 µM (active).
